# Measurements from paper PMC7177849, “Gut Microbial Catabolites of Tryptophan Are Ligands and Agonists of the Aryl Hydrocarbon Receptor: A Detailed Characterization” (International Journal of Molecular Sciences, 2020).
# Values joined by “and” are separate entries in the source; they are usually repeats but may differ in a detail not shown here. Identical values can stand only once. Like-named read-outs stand apart in the source and are kept apart here.
# Experiments:
# AhR [1] = molecular target: T1, AhR (Homo sapiens, UniProt P35869); assay: Immunofluorescence detection of nuclear translocation of the AhR in LS180 cells; assay type: cell-based; parameters: 0.1% V/V), TCDD (10 nM), and test MICT; host or cells: LS180 cells
# T1 sequence (P35869 11-848): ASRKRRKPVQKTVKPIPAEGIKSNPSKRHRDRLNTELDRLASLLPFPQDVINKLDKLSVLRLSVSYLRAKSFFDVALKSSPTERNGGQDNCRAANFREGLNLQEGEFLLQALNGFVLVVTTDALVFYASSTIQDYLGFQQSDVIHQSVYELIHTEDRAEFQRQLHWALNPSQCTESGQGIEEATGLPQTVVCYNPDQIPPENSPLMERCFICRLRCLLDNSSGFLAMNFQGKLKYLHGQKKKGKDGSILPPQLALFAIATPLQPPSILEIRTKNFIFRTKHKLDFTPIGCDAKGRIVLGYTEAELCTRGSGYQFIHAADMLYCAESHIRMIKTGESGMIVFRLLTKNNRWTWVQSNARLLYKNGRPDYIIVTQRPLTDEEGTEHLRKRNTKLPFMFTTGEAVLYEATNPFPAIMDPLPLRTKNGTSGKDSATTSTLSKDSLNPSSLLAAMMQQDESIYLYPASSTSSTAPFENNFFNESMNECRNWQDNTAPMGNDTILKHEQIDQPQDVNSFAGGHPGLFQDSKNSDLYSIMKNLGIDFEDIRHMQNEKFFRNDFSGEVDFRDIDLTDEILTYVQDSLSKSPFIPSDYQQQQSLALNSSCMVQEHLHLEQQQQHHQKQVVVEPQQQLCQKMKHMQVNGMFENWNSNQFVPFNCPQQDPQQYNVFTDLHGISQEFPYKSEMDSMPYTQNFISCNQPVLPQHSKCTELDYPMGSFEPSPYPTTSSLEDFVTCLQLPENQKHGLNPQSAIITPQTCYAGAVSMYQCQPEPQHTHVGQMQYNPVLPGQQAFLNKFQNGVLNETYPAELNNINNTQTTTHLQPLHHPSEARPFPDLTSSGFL
# Description: Figure 5 Effect of MICT on nuclear translocation of the AhR. LS180 cells were incubated for 90 min with vehicle (DMSO; 0.1% V/V), TCDD (10 nM), and test MICT. The experiments were performed in three consecutive cell passages with all tested compounds in duplication. Fluorescence images depict sub-cellular localization of AhR (upper panels) and nuclear staining by DAPI (lower panels). Representative micrographs are shown.
# (§1) LS180 cells (60,000 cells/well) were plated on 8-well chambered slides (94.6140.802, Sarstedt, Nümbrecht, Germany) and allowed to grow overnight. Then, the cells were incubated with DMSO (0.1% V/V), TCDD (10 nM), IND (1000 µM), IPY (200 µM), 3MI (200 µM), TA (200 µM), IAC (100 µM), and IAD (200 µM). The staining procedure was described in detail elsewhere. The images were captured using an IX73 fluorescence microscope (Olympus, Tokyo, Japan). The immunofluorescence signal intensity (of the AhR antibody) in the nucleus was evaluated visually. For percentage calculation, approximately 500 cells from at least four randomly selected fields of view in each specimen were used.
# Suppl. Table 1. Nuclear translocation of AhR – quantification of immunofluorescence.
# LS180 cells were incubated for 90 min with MICT , vehicle or TCDD. Intracellular AhR was visualized with Alexa Fluor 488 labelled primary antibody. The whole staining protocol was performed in three independent experiments in technical duplicates. The AhR translocation was evaluated visually depending on the distinct signal intensity of AhR antibody in the nucleus and cytosol. For percentage calculation, approximately one hundred cells from at least four randomly selected fields of view in each
# AhR [2] = molecular target: T1, AhR; assay: Summary of AhR cell functions (translocation; heterodimerization; DNA-binding) in LS180 cells; assay type: cell-based; parameters: 0.1% V/V), TCDD (10 nM), and test MICT; host or cells: LS180 cells; conditions: Table 1 summary class
# Description: as §1
# LS180 cells (4 million) were seeded in a 60-mm dish in Dulbecco’s modified Eagle’s medium (D6546; Sigma Aldrich). The following day, the cells were incubated with DMSO (0.1% V/V), TCDD (10 nM), IND (1000 µM), IPY (200 µM), 3MI (200 µM), TA (200 µM), IAC (100 µM), and IAD (200 µM) for 90 min at 37 °C. ChIP assay was performed as we described in detail elsewhere.
# Intestinal LS180 cells were incubated with TCDD, tested MICT, and vehicle (DMSO; 0.1% V/V) for 90 min at 37 °C. The Pierce™ Co-Immunoprecipitation Kit (Thermo Fisher Scientific) with covalently coupled AhR antibody (mouse monoclonal, sc-133088, A-3, Santa Cruz Biotechnology) was used. Eluted protein complexes and total parental lysates were resolved on SDS-PAGE gels followed by Western Blot analysis and immuno-detection with ARNT-1 antibody (mouse monoclonal, sc-17812, G-3, Santa Cruz Biotechnology). Chemiluminescent detection was performed using horseradish peroxidase-conjugated anti-mouse secondary antibody (7076S, Cell Signaling Technology) and WesternSure® PREMIUM Chemiluminescent Substrate (LI-COR Biotechnology) by C-DiGit® Blot Scanner (LI-COR Biotechnology).
# [3] = LS180, 90 min, exp 1, TCDD 10 nM, Indole 1 mM, IAC 100 µM, others 200 µM
# [4] = LS180, 90 min, exp 2, TCDD 10 nM, Indole 1 mM, IAC 100 µM, others 200 µM
# [5] = LS180, 90 min, exp 3, TCDD 10 nM, Indole 1 mM, IAC 100 µM, others 200 µM
# [6] = mean ± SD, n = 3, relative to TCDD-treated cells, LS180, 90 min
# [7] = relative to TCDD-treated cells, LS180, 90 min, exp 1, same concentrations
# [8] = relative to TCDD-treated cells, LS180, 90 min, exp 2, same concentrations
# [9] = relative to TCDD-treated cells, LS180, 90 min, exp 3, same concentrations
Structure (SMILES),% positive AhR nuclei (AhR [1]; [3]) [%],% positive AhR nuclei (AhR [1]; [4]) [%],% positive AhR nuclei (AhR [1]; [5]) [%],Ø AhR positive nuclei (AhR [1]; [6]) [%],% relative AhR nuclei (AhR [1]; [7]) [%],% relative AhR nuclei (AhR [1]; [8]) [%],% relative AhR nuclei (AhR [1]; [9]) [%],AhR Cell Functions (Translocation); Heterodimerization; DNA-Binding (AhR [2]),% positive AhR nuclei (AhR [1]),% relative AhR nuclei (AhR [1]),Ø AhR positive nuclei (AhR [1]) [%]
"Cc1c[nH]c2ccccc12 [3MI, skatole]",65,72,62,105 ± 13.8,120,94,102,highly active–all parameters,–,–,–
"O=C(O)/C=C/c1c[nH]c2ccccc12 [IAC, indole-3-acrylate]",51,61,73,98 ± 20.4,94,79,120,highly active–all parameters,–,–,–
"NC(=O)Cc1c[nH]c2ccccc12 [IAD, indole-3-acetamide]",46,73,42,83 ± 13.1,85,95,69,highly active–all parameters,–,–,–
"c1ccc2[nH]ccc2c1 [IND, indole]",–,–,–,–,–,–,–,highly active–all parameters,61% and 73% and 65%,113% and 95% and 107%,105 ± 9.2
"O=C(O)C(=O)Cc1c[nH]c2ccccc12 [IPY, indole-3-pyruvate]",42,60,38,73 ± 9.0,78,78,62,highly active–all parameters,–,–,–
"NCCc1c[nH]c2ccccc12 [TA, tryptamine]",44,65,66,91 ± 14.6,81,84,108,highly active–all parameters,–,–,–
"Clc1cc2c(cc1Cl)Oc1cc(Cl)c(Cl)cc1O2 [TCDD, 2,3,7,8-tetrachlorodibenzo-p-dioxin, reference compound]",54,77,61,–,–,–,–,–,–,–,–
